Data taken from patent US10695337B2, “Piperidin-4-yl azetidine derivatives as JAK1 inhibitors” (Incyte Corporation, priority 2010, dated 2020).

Molecular target: human JAK1 (a.a. 837-1142)
Assay: In vitro JAK kinase assay (HTRF, phosphorylation of a biotinylated peptide), JAK1
Type: biochemical
Conditions: measured at 1 mM ATP; JAK2 IC50 / JAK1 IC50
Description: Compounds herein were tested for inhibitory activity of JAK targets according to the following in vitro assay described in Park et al., Analytical Biochemistry 1999, 269, 94-104. The catalytic domains of human JAK1 (a.a. 837-1142), Jak2 (a.a. 828-1132) and Jak3 (a.a. 781-1124) with an N-terminal His tag were expressed using baculovirus in insect cells and purified. The catalytic activity of JAK1, JAK2 or JAK3 was assayed by measuring the phosphorylation of a biotinylated peptide. The phosphorylated peptide was detected by homogenous time resolved fluorescence (HTRF). […] Reactions were carried out at room temperature for 1 hr and then stopped with 20 μL 45 mM EDTA, 300 nM SA-APC, 6 nM Eu-Py20 in assay buffer (Perkin Elmer, Boston, Mass.). Binding to the Europium labeled antibody took place for 40 minutes and HTRF signal was measured on a Fusion plate reader (Perkin Elmer, Boston, Mass.).

Q: COc1ccc(CN2CCC(N3CC(CC#N)(n4cc(-c5ncnc6[nH]ccc56)cn4)C3)CC2)c(Cl)c1OC [Example 239, {1-[1-(2-chloro-3,4-dimethoxybenzyl)piperidin-4-yl]-3-[4-(7H-pyrrolo[2,3-d]pyrimidin-4-yl)-1H-pyrazol-1-yl]azetidin-3-yl}acetonitrile] was tested. Which “IC50 Ratio JAK2/JAK1” value did it give?
A: 2.3

Q: CN(C)c1ccc(C(=O)N2CCC(N3CC(CC#N)(n4cc(-c5ncnc6[nH]ccc56)cn4)C3)CC2)c(F)c1C#N [Example 51, 3-[(4-{3-(cyanomethyl)-3-[4-(7H-pyrrolo[2,3-d]pyrimidin-4-yl)-1H-pyrazol-1-yl]azetidin-1-yl}piperidin-1yl)carbonyl]-6-(dimethylamino)-2-fluorobenzonitrile] was tested. Which “IC50 Ratio JAK2/JAK1” value did it give?
A: 6.3

Q: Which “IC50 Ratio JAK2/JAK1” value does the source give for N#CCC1(n2cc(-c3c(C#N)cnc4[nH]ccc34)cn2)CN(C2CCN(C(=O)c3cc(F)cc(C#N)c3)CC2)C1 [Example 333, 4-{1-[1-[1-(3-cyano-5-fluorobenzoyl)piperidin-4-yl]-3-(cyanomethyl)azetidin-3-yl]-1H-pyrazol-4-yl}-1H-pyrrolo[2,3-b]pyridine-5-carbonitrile] here?
A: 8.8

Q: N#CCC1(n2cc(-c3ccnc4[nH]ccc34)cn2)CN(C2CCN(C(=O)c3cnc(C(F)(F)F)cn3)CC2)C1 [Example 301, [3-[4-(1H-pyrrolo[2,3-b]pyridin-4-yl)-1H-pyrazol-1-yl]-1-(1-{[5-(trifluoromethyl)pyrazin-2-yl]carbonyl}piperidin-4-yl)azetidin-3-yl]acetonitrile] was tested. Which “IC50 Ratio JAK2/JAK1” value did it give?
A: 3.3

Q: N#CCC1(n2cc(-c3c(F)cnc4[nH]ccc34)cn2)CN(C2CCN(C(=O)c3cc(C(F)(F)F)ncc3Cl)CC2)C1 [Example 326, {1-{1-[5-chloro-2-(trifluoromethyl)isonicotinoyl]piperidin-4-yl}-3-[4-(5-fluoro-1H-pyrrolo[2,3-b]pyridin-4-yl)-1H-pyrazol-1-yl]azetidin-3-yl}acetonitrile] was tested. Which “IC50 Ratio JAK2/JAK1” value did it give?
A: 1.7

Q: For COc1ccc2nc(Cl)c(CN3CCC(N4CC(CC#N)(n5cc(-c6ncnc7[nH]ccc67)cn5)C4)CC3)cc2c1 [Example 238, {1-{1-[(2-chloro-6-methoxyquinolin-3-yl)methyl]piperidin-4-yl}-3-[4-(7H-pyrrolo[2,3-d]pyrimidin-4-yl)-1H-pyrazol-1-yl]azetidin-3-yl}acetonitrile], which “IC50 Ratio JAK2/JAK1” value is on record?
A: 6.8

Q: N#CCC1(n2cc(-c3ccnc4[nH]ccc34)cn2)CN(C2CCN(C(=O)Nc3ccccc3Cl)CC2)C1 [Example 310, N-(2-chlorophenyl)-4-{3-(cyanomethyl)-3-[4-(1H-pyrrolo[2,3-b]pyridin-4-yl)-1H-pyrazol-1-yl]azetidin-1-yl}piperidine-1-carboxamide] was tested. Which “IC50 Ratio JAK2/JAK1” value did it give?
A: 9.0

Q: For N#CCC1(n2cc(-c3ncnc4[nH]ccc34)cn2)CN(C2CCN(C(=O)Nc3cccc(C(F)(F)F)c3F)CC2)C1 [Example 170, 4-{3-(cyanomethyl)-3-[4-(7H-pyrrolo[2,3-d]pyrimidin-4-yl)-1H-pyrazol-1-yl]azetidin-1-yl}-N-[2-fluoro-3-(trifluoromethyl)phenyl]piperidine-1-carboxamide], which “IC50 Ratio JAK2/JAK1” value is on record?
A: 6.9

Q: Which “IC50 Ratio JAK2/JAK1” value does the source give for N#CCC1(n2cc(-c3ncnc4[nH]ccc34)cn2)CN(C2CCN(C(=O)Nc3ccc(Cl)cc3)CC2)C1 [Example 184, N-(4-chlorophenyl)-4-{3-(cyanomethyl)-3-[4-(7H-pyrrolo[2,3-d]pyrimidin-4-yl)-1H-pyrazol-1-yl]azetidin-1-yl}piperidine-1-carboxamide] here?
A: 3.9

Q: How did the “IC50 Ratio JAK2/JAK1” value turn out when N#CCC1(n2cc(-c3ncnc4[nH]ccc34)cn2)CN(C2CCN(C(=O)Nc3ccc(F)cc3F)CC2)C1 [Example 171, 4-{3-(cyanomethyl)-3-[4-(7H-pyrrolo[2,3-d]pyrimidin-4-yl)-1H-pyrazol-1-yl]azetidin-1-yl}-N-(2,4-difluorophenyl) piperidine-1-carboxamide] was run?
A: 7.5

Q: Which “IC50 Ratio JAK2/JAK1” value does the source give for Cc1nc(C(F)(F)F)ccc1NC(=O)N1CCC(N2CC(CC#N)(n3cc(-c4ncnc5[nH]ccc45)cn3)C2)CC1 [Example 205, 4-{3-(cyanomethyl)-3-[4-(7H-pyrrolo[2,3-d]pyrimidin-4-yl)-1H-pyrazol-1-yl]azetidin-1-yl}-N-[2-methyl-6-(trifluoromethyl)pyridin-3-yl]piperidine-1-carboxamide] here?
A: 4.4

Q: Which “IC50 Ratio JAK2/JAK1” value does the source give for N#CCC1(n2cc(-c3ncnc4[nH]ccc34)cn2)CN(C2CCN(C(=O)c3sccc3Cl)CC2)C1 [Example 76, {1-{1-[(3-chloro-2-thienyl)carbonyl]piperidin-4-yl}-3-[4-(7H-pyrrolo[2,3-d]pyrimidin-4-yl)-1H-pyrazol-1-yl]azctidin-3-yl}acetonitrile] here?
A: 5.5

Q: Which “IC50 Ratio JAK2/JAK1” value does the source give for CCn1nccc1NC(=O)N1CCC(N2CC(CC#N)(n3cc(-c4ncnc5[nH]ccc45)cn3)C2)CC1 [Example 196, 4-{3-(cyanomethyl)-3-[4-(7H-pyrrolo[2,3-d]pyrimidin-4-yl)-1H-pyrazol-1-yl]azetidin-1-yl}-N-(1-ethyl-1H-pyrazol-5-yl)piperidine-1-carboxamide] here?
A: 9.9

Q: How did the “IC50 Ratio JAK2/JAK1” value turn out when N#CCC1(n2cc(-c3ncnc4[nH]ccc34)cn2)CN(C2CCN(C(=O)c3cccc(Br)c3)CC2)C1 [Example 20, {1-[1-(3-bromobenzoyl)piperidin-4-yl]-3-[4-(7H-pyrrolo[2,3-d]pyrimidin-4-yl)-1H-pyrazol-1-yl]azetidin-3-yl}acetonitrile] was run?
A: 4.2

Q: Which “IC50 Ratio JAK2/JAK1” value does the source give for N#CCC1(n2cc(-c3ncnc4[nH]ccc34)cn2)CN(C2CCN(C(=O)c3cc4ccccc4s3)CC2)C1 [Example 90, {1-[1-(1-benzothien-2-ylcarbonyl)piperidin-4-yl]-3-[4-(7H-pyrrolo[2,3-d]pyrimidin-4-yl)-1H-pyrazol-1-yl]azetidin-3-yl}acetonitrile] here?
A: 1.5

Q: For N#CCC1(n2cc(-c3ncnc4[nH]ccc34)cn2)CN(C2CCN(C(=O)c3ccc(-c4cccc5ncccc45)c(F)c3)CC2)C1 [Example 129, {1-[1-(3-fluoro-4-quinolin-5-ylbenzoyl)piperidin-4-yl]-3-[4-(7H-pyrrolo[2,3-d]pyrimidin-4-yl)-1H-pyrazol-1-yl]azetidin-3-yl} acetonitrile], which “IC50 Ratio JAK2/JAK1” value is on record?
A: 7.9

Q: How did the “IC50 Ratio JAK2/JAK1” value turn out when Cc1nc(F)ccc1NC(=O)N1CCC(N2CC(CC#N)(n3cc(-c4ncnc5[nH]ccc45)cn3)C2)CC1 [Example 199, 4-{3-(cyanomethyl)-3-[4-(7H-pyrrolo[2,3-d]pyrimidin-4-yl)-1H-pyrazol-1-yl]azetidin-1-yl}-N-(6-fluoro-2-methylpyridin-3-yl)piperidine-1-carboxamide] was run?
A: 10.0

Q: How did the “IC50 Ratio JAK2/JAK1” value turn out when N#CCC1(n2cc(-c3ncnc4[nH]ccc34)cn2)CN(C2CCN(C(=O)Nc3ncccc3F)CC2)C1 [Example 202, 4-{3-(cyanomethyl)-3-[4-(7H-pyrrolo[2,3-d]pyrimidin-4-yl)-1H-pyrazol-1-yl]azetidin-1-yl}-N-(3-fluoropyridin-2-yl)piperidine-1-carboxamide] was run?
A: 6.4

Q: How did the “IC50 Ratio JAK2/JAK1” value turn out when Cc1ccccc1NC(=O)N1CCC(N2CC(CC#N)(n3cc(-c4ncnc5[nH]ccc45)cn3)C2)CC1 [Example 185, 4-{3-(cyanomethyl)-3-[4-(7H-pyrrolo[2,3-d]pyrimidin-4-yl)-1H-pyrazol-1-yl]azetidin-1-yl}-N-(2-methylphenyl) piperidine-1-carboxamide] was run?
A: 9.5

Q: For N#CCC1(n2cc(-c3ncnc4[nH]ccc34)cn2)CN(C2CCN(Cc3cc(Br)nc(Br)c3)CC2)C1 [Example 225, {1-{1-[(2,6-dibromopyridin-4-yl)methyl]piperidin-4-yl}-3-[4-(7H-pyrrolo[2,3-d]pyrimidin-4-yl)-1H-pyrazol-1-yl]azetidin-3-yl}acetonitrile], which “IC50 Ratio JAK2/JAK1” value is on record?
A: 3.8

Q: N#CCC1(n2ccc(-c3ncnc4[nH]ccc34)c2)CN(C2CCN(C(=O)c3cc(F)ccc3F)CC2)C1 [Example 278, {1-[1-(2,5-difluorobenzoyl)piperidin-4-yl]-3-[3-(7H-pyrrolo[2,3-d]pyrimidin-4-yl)-1H-pyrrol-1-yl]azetidin-3-yl}acetonitrile] was tested. Which “IC50 Ratio JAK2/JAK1” value did it give?
A: 5.6

Q: Which “IC50 Ratio JAK2/JAK1” value does the source give for N#CCC1(n2cc(-c3ncnc4[nH]ccc34)cn2)CN(C2CCN(C(=O)c3cc(Cl)sc3Cl)CC2)C1 [Example 30, {1-{1-[(2,5-dichloro-3-thienyl)carbonyl]piperidin-4-yl}-3-[4-(7H-pyrrolo[2,3-d]pyrimidin-4-yl)-1H-pyrazol-1-yl]azetidin-3-yl}acetonitrile] here?
A: 2.8

Q: Which “IC50 Ratio JAK2/JAK1” value does the source give for N#CCC1(n2cc(-c3ncnc4[nH]ccc34)cn2)CN(C2CCN(C(=O)c3cc(F)c(F)cc3F)CC2)C1 [Example 48, {3-[4-(7H-pyrrolo[2,3-d]pyrimidin-4-yl)-1H-pyrazol-1-yl]-1-[1-(2,4,5-trifluorobenzoyl)piperidin-4-yl]azetidin-3-yl}acetonitrile] here?
A: 6.5

Q: How did the “IC50 Ratio JAK2/JAK1” value turn out when N#CCC1(n2cc(-c3ncnc4[nH]ccc34)cn2)CN(C2CCN(C(=O)c3ccc(-c4cccc(C#N)c4)c(F)c3)CC2)C1 [Example 125, 4′-[(4-{3-(cyanomethyl)-3-[4-(7H-pyrrolo[2,3-d]pyrimidin-4-yl)-1H-pyrazol-1-yl]azetidin-1-yl}piperidin-1-yl)carbonyl]-2′-fluorobiphenyl-3-carbonitrile] was run?
A: 8.1

Q: With N#CCC1(n2ccc(-c3ncnc4[nH]ccc34)c2)CN(C2CCN(C(=O)c3cccc(OC(F)(F)F)c3F)CC2)C1 [Example 281, {1-{1-[2-fluoro-3-(trifluoromethoxy)benzoyl]piperidin-4-yl}-3-[3-(7H-pyrrolo[2,3-d]pyrimidin-4-yl)-1H-pyrrol-1-yl]azetidin-3-yl}acetonitrile] as the molecule, how does the “IC50 Ratio JAK2/JAK1” value read?
A: 10.0
